Source: PMC5834492, “Antimycobacterial drug discovery using Mycobacteria-infected amoebae identifies anti-infectives and new molecular targets” (Scientific Reports, 2018)
Read-outs that look alike come from different tables or passages of the source.

Columns and labels:
M. marinum luxCDABE = type: cell-based, Mycobacterium marinum; conditions: 10 µM
M. marinum GFP = type: cell-based, Mycobacterium marinum; conditions: 10 µM; antibiotic assay
[1] = tested on: M. marinum in A. castellanii; type: cell-based, Mycobacterium marinum; conditions: 10 µM
[2] = tested on: M. marinum in BV2 microglial cells; type: cell-based, Mycobacterium marinum
D. discoideum GFP-ABD = conditions: 10 µM
Mtb H37Rv in THP-1 = tested on: Mtb H37Rv in THP-1; design: method as in Sorrentino et al, 2015; conditions: ref Sorrentino et al, 2015, cited from earlier work; for Extracellular MIC90/ Inracellular MIC90: ratio
Mtb H37Rv = tested on: Mtb H37Rv; design: method as in Sorrentino et al, 2015; conditions: ref Sorrentino et al, 2015; cited from earlier work
[3] = THP1 / Mtb H37Rv infection assay

| Compound | M. marinum luxCDABE normalised growth, control = 1.00, mean (M. marinum luxCDABE) | M. marinum luxCDABE normalised growth, control=1.00, mean (M. marinum luxCDABE) | M. marinum GFP normalised growth, control=1.00, mean (M. marinum GFP) | A. castellanii / M. marinum normalised growth, control=1.00, mean [1] | Hits A. castellanii/M. marinum assay True/False [1] | IC50 [2] | BV2 / M. marinum normalised growth, control=1.00, mean ([2]; 10 µM) | hit in BV2/M. marinum assay True/False ([2]; 10 µM) | D. discoideum GFP-ABD normalised growth, control=1.00, mean (D. discoideum GFP-ABD) | Intracelullar MIC90 in THP-1 (Mtb H37Rv in THP-1; Mtb H37Rv-infected THP1 cells) | Intracelullar MIC90 in THP-1 (Mtb H37Rv in THP-1; [3]) | Extracellular MIC90/ Inracellular MIC90 (Mtb H37Rv in THP-1) | Extracellular MIC90 (Mtb H37Rv) | anti-infective properties in A. castellanii infection assay [1] | anti-infective properties in microglial cell (BV2) infection assay ([2]; 10 µM) |
| --- | --- | --- | --- | --- | --- | --- | --- | --- | --- | --- | --- | --- | --- | --- | --- |
| Cc1ccc2nc(C(F)(F)F)c(C(=O)NCc3cc(Cl)cc(Cl)c3)n2c1 [GSK1829736A] | 0,00 | 0.00 | 0.04 | 0.60 | FALSE | 2.21 µM | 0.41 | TRUE | 0.93 | 0.61 µM | 0.61 µM | 1.47 | 0.9 µM |  |  |
| Nc1nc(N)c2c(Sc3ccc4ccccc4c3)cccc2n1 [GW369335X] |  | 0.20 | 0.14 | 0.37 | TRUE | 4.87 µM | 0.71 | FALSE | 0.97 | 5.55 µM | 5.55 µM | 1.57 | 8.7 µM |  |  |
| Br.CC1(C)NC(N)=NC(=N)N1OCCCOc1ccc(Cl)cc1Cl [BRL-51091AM] |  | 0.00 | 1.23 | 1.95 |  | 1.8 µM | 0.51 |  | 0.97 |  | 5.55 µM | 0.63 | 3.5 µM |  |  |
| Cc1ccccc1CN1CCC(O)(c2ccc(Cl)c(C(F)(F)F)c2)CC1 [GSK1985270A] | 0,00 | 0.00 | 0.09 | -0.06 | TRUE | 4.88 µM | 0.45 | TRUE | 0.99 | 0.21 µM | 0.21 µM | 20 | 4.2 µM | strong anti-infective properties | strong anti-infective properties |
| O=C(c1cc2c(s1)CCC2)N1CCN(Cc2ccc3c(c2)OCO3)CC1 [GSK1731114A] |  | 0.085 | 0.30 | 0.92 |  | 9.43 µM | 0.81 |  | 0.44 |  | 5.55 µM | 0.95 | 5.3 µM |  |  |
| Cc1ccc2nc(C(F)(F)F)c(C(=O)NCc3cccc(OC(C)C)c3)n2c1 [GSK1829733A] |  | 0.00 | 0.09 | 0.68 |  | 3.35 µM | 0.69 |  | 1.05 |  | 1.85 µM | 1.13 | 2.1 µM |  |  |
| Cc1ccc(C(=O)Nc2nc(-c3ccccn3)cs2)s1 [GSK1372568A] |  | 0.00 | 0.69 | 1.35 |  | 5.33 µM | 0.95 |  | 0.31 |  | 50 µM | 0.17 | 8.4 µM |  |  |
| O=C(NCc1ccc(Oc2ccccc2)cc1)c1c(C(F)(F)F)nc2ccccn12 [GSK1829676A] | 0,00 | 0.00 | 0.0321 | 0.56 | FALSE |  | 0.35 | TRUE | 0.75 | 0.21 µM | 0.21 µM | 0.95 | 0.2 µM |  |  |
| CCOc1ccc(-c2nc(CNCCc3ccc(F)cc3)cs2)cc1.O=C(O)C(=O)O [GSK1759150A] |  | 0.37 | 0.75 | 0.82 |  | 4.31 µM | 0.73 |  | 0.30 |  | 16.65 µM | 0.07 | 1.1 µM |  |  |
| Cl.O=C(c1ccco1)N(CCCn1ccnc1)c1nc2c(Cl)cccc2s1 [GSK1788487A] |  | 0.09 | 0.66 | 1.34 |  | 4.96 µM | 0.94 |  | 0.32 |  | 50 µM | 0.17 | 8.4 µM |  |  |
| CN1CCN(c2cc(-c3ccncc3)nc(-c3ccccc3)n2)CC1 [GSK275984A] |  | 0.065 | 0.26 | 1.13 |  | 5.11 µM | 0.62 |  | 0.52 |  | 5.55 µM | 1.62 | 9 µM |  |  |
| N=C(Nc1nc(-c2ccccn2)cc2ccccc12)c1cccc(Cl)c1 [GSK381407A] |  | 0.00 | 7.92e-5 | 1.06 |  | 7.71 µM | 0.65 |  | 0.98 |  | 0.61 µM | 7.38 | 4.5 µM |  |  |
| CCN(Cc1ccc2c(c1)OCO2)C(=O)CSc1nc(NC)c2ccccc2n1 [GSK1859936A] |  | 0.07 | 0.54 | 1.03 |  | 4.14 µM | 0.63 |  | 1.00 |  | 16.65 µM | 0.17 | 2.8 µM |  |  |
